Among the data in ChEMBL document CHEMBL1158910, “The gastric cytoprotective effect of several sesquiterpene lactones” (J Nat Prod, 1990) are Activity values, retold here.

The subject of experiment [1] is Rattus norvegicus. In words: Antiulcerogenic activity in Wistar rat assessed as cytoprotection against ethanol-induced gastric lesions at 40 mg/kg administered 60 mins before ethanol challenge. Format: functional, organism-based. Details: dose 40 mg/kg. The conditions noted are these: Stomach.
Experiment [2] concerns Rattus norvegicus. Kind of experiment: Antiulcerogenic activity in Wistar rat assessed as cytoprotection against ethanol-induced gastric lesions administered 60 mins before ethanol challenge. Format: functional, organism-based. The conditions noted are these: Stomach.

Activity calls are given as the source filed them. The calls are words filed in the database; no cut-off is given here.

For the molecule `C=C1C(=O)O[C@H]2[C@H](O)[C@@H](C)[C@@H]3[C@@H](OC(=O)/C(C)=C\C)C[C@H](O)[C@@]3(C)[C@H](OC(C)=O)[C@H]12`, the outcome with Rattus norvegicus [1] was Active. Regarding `C=C1C(=O)O[C@@H]2C[C@@H](C)[C@@H]3C=CC(=O)[C@@]3(C)[C@@H](O)[C@H]12`, the outcome in the experiment with Rattus norvegicus [1] was Active. Turning to `C=C1C(=O)O[C@@H]2[C@H]3C(=C)[C@@H](O)C[C@H]3C(=C)C[C@H](OC(=O)/C(C)=C\C)[C@@H]12`, the result in the experiment with Rattus norvegicus [1] was Active. For the molecule `CC1=CC(=O)C2=C(C)CC[C@@H]3[C@H](OC(=O)[C@H]3C)[C@@H]12`, the result in the experiment with Rattus norvegicus [1] was inactive. As for `C=C1C(=O)O[C@@H]2[C@H]3C(C)=CC(=O)C3=C(C)CC[C@@H]12`, in the experiment on Rattus norvegicus [1], the outcome was Active. The Activity result with Rattus norvegicus [2] is “Dose-dependent effect”. As for `C=C1C(=O)O[C@H]2[C@H]1CCC(C)=C1C[C@H]3O[C@@]3(C)[C@@H]12`, the outcome with Rattus norvegicus [1] was Active. Regarding `C=C1C(=O)O[C@@H]2[C@H]1CC[C@H](C)[C@@]1(O)C=CC(=O)[C@@]21C`, the result with Rattus norvegicus [1] was Active. Besides, the Activity result with Rattus norvegicus [2] is “Dose-dependent effect”.

On to `C=C1C(=O)O[C@H]2C[C@@H](C)[C@@H]3C=CC(=O)[C@@]3(C)[C@H](O)[C@H]12`, for which, in the experiment with Rattus norvegicus [1], the result was Active.
